Measurements reported in article PMC6222832, “Kinetic Characterization of Novel HIV-1 Entry Inhibitors: Discovery of a Relationship between Off-Rate and Potency” (Molecules : A Journal of Synthetic Chemistry and Natural …, 2018).

Assays:
[1] = system: HIV-1 JR-CSF Env pseudotyped HIV-1; assay: microbe, parasite or virus in culture; format: cell-based; details: Human immunodeficiency virus 1, U87/CD4/CCR5, 48 h, read-out: IC50 JR-CSF
[2] = system: HIV-1 B41 Env pseudotyped HIV-1; assay: microbe, parasite or virus in culture; format: cell-based; details: Human immunodeficiency virus 1, U87/CD4/CCR5, 48 h, read-out: IC50 B41
[3] = system: HIV-1B41 and HIV-1JR-CSF Env pseudotyped virions; assay: microbe, parasite or virus in culture; format: cell-based; details: Human immunodeficiency virus 1, read-out: Median IC50
[4] = target: B41 SOSIP.664 gp140 trimer (Human immunodeficiency virus type 1, UniProt B3UES2, A505C/E513R/I563P/INS515RR/K514R/T609C); format: binding, HIV-1
in vitro = details: human
[5] = target: HIV-1 B41 SOSIP.664 gp140 trimer (Human immunodeficiency virus type 1, UniProt B3UES2, A505C/E513R/I563P/INS515RR/K514R/T609C); format: binding

Row | SMILES | IC50 [1] [nM] | IC50 [2] [nM] | IC50 [3] [nM] | ka [4] [M⁻¹ s⁻¹] | kd [4] [s⁻¹] | CC50 at 48 h (in vitro) [nM] | ka [5] [M⁻¹ s⁻¹] | kd [5] [s⁻¹]
1 | COc1cnc(-n2cnc(C)n2)c2[nH]cc(C(=O)C(=O)N(C)C3CN(C(=O)c4ccccc4)C3)c12 [SC18] | 132 ± 4 | 360 ± 12 | 246 | 15900 | 0.0248 | > 50000 |  | 
2 | COc1cnc(-n2cnc(C)n2)c2[nH]cc(C(=O)C(=O)N3CC4CN(C(=O)c5ccccc5)CC4C3)c12 (centres unmarked) [SC11] | 0.6 ± 0.1 | 2 ± 0.2 | ~2 | 4330 | 0.000287 | > 50000 |  | 
3 | COc1cnc(-n2cnc(C)n2)c2[nH]cc(C(=O)C(=O)N3CC(CSC(=O)c4ccccc4)C3)c12 [SC16] | 29 ± 8 | 37 ± 5 | 33 | 86200 | 0.00598 | > 50000 |  | 
4 | COc1cnc(-n2cnc(C)n2)c2[nH]cc(C(=O)C(=O)N3CC4C=NN(c5nnnn5-c5ccccc5)C4C3)c12 (centres unmarked) [SC39] | 143 ± 52 | 5320 ± 260 | 2730 | 1390 | 0.0381 | > 50000 |  | 
5 | COc1cnc(-n2cnc(C)n2)c2[nH]cc(C(=O)C(=O)N3CCN(C(=O)c4ccccc4)CC3)c12 [BMS-626529, reference compound] | 0.06 ± 0.005 | 0.05 ± 0.006 | 0.055 |  |  |  | 38900 | 0.00059
